{"source": "paper PMC6462165", "about": "(International Journal of Nanomedicine, 2019)", "origin": "cited, not measured here", "tested_on": "endothelial cell proliferation", "conditions": "inhibition of endothelial cell proliferation; cited from earlier work"}
{"sequence": "IVRRADRAAVP [ES2]", "values": [{"measurement": "activity relative to the ES sequence", "result": "about three times more active than the ES sequence"}]}
